Experimental data: PubChem BioAssay (NCI)
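1) Cells in 96-well plates. 2) Compound, 48 h, 5 concentrations. 3) Linear interpolation between surrounding doses. 4) Unreached endpoint = highest concentration. TGI marks complete inhibition of growth.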

Legend:
Assay in all cases: NCI anticancer screen, dose series, 48 h
BT-549 breast = system: BT-549 breast
MCF7 breast = system: MCF7 breast
SNB-19 CNS = system: SNB-19 CNS
786-0 renal = system: 786-0 renal
SF-268 CNS = system: SF-268 CNS
HOP-62 NSCLC = system: HOP-62 NSCLC
SK-MEL-2 melanoma = system: SK-MEL-2 melanoma
A498 renal = system: A498 renal
T-47D breast = system: T-47D breast
K-562 leukemia = system: K-562 leukemia
HOP-92 NSCLC = system: HOP-92 NSCLC
HL-60(TB) leukemia = system: HL-60(TB) leukemia
ACHN renal = system: ACHN renal
LOX IMVI melanoma = system: LOX IMVI melanoma
NCI/ADR-RES ovarian = system: NCI/ADR-RES ovarian
UACC-257 melanoma = system: UACC-257 melanoma
NCI-H226 lung = system: NCI-H226 lung
SF-295 CNS = system: SF-295 CNS
OVCAR-3 ovarian = system: OVCAR-3 ovarian
M14 melanoma = system: M14 melanoma
CCRF-CEM leukemia = system: CCRF-CEM leukemia
UACC-62 melanoma = system: UACC-62 melanoma
OVCAR-8 ovarian = system: OVCAR-8 ovarian
MDA-MB-435 = system: MDA-MB-435
EKVX NSCLC = system: EKVX NSCLC
SK-MEL-28 melanoma = system: SK-MEL-28 melanoma
NCI-H522 lung = system: NCI-H522 lung
MOLT-4 leukemia = system: MOLT-4 leukemia
OVCAR-4 ovarian = system: OVCAR-4 ovarian
SW-620 colon = system: SW-620 colon
HS 578T breast = system: HS 578T breast
TK-10 renal = system: TK-10 renal
MALME-3M melanoma = system: MALME-3M melanoma
UO-31 renal = system: UO-31 renal
OVCAR-5 ovarian = system: OVCAR-5 ovarian
NCI-H460 lung = system: NCI-H460 lung
U251 CNS = system: U251 CNS
RXF 393 renal = system: RXF 393 renal
CAKI-1 renal = system: CAKI-1 renal
SN12C renal = system: SN12C renal
PC-3 prostate = system: PC-3 prostate
HCT-116 colon = system: HCT-116 colon
MDA-MB-231 breast = system: MDA-MB-231 breast
KM12 colon = system: KM12 colon
IGROV1 ovarian = system: IGROV1 ovarian
SK-OV-3 ovarian = system: SK-OV-3 ovarian
MDA-N = system: MDA-N
SK-MEL-5 melanoma = system: SK-MEL-5 melanoma
DU-145 prostate = system: DU-145 prostate
NCI-H23 lung = system: NCI-H23 lung
A549 NSCLC = system: A549 NSCLC
HCT-15 colon = system: HCT-15 colon
HT29 colon = system: HT29 colon
COLO 205 colon = system: COLO 205 colon
RPMI-8226 leukemia = system: RPMI-8226 leukemia
SNB-75 CNS = system: SNB-75 CNS
SF-539 CNS = system: SF-539 CNS
HCC-2998 colon = system: HCC-2998 colon

Work on C#C[C@]1(O)CC[C@H]2[C@@H]3CCC4=CC(=NCCOC(=O)c5cccc6cc7ccccc7nc56)CC[C@@H]4[C@H]3CC[C@@]21C yielded a TGI (BT-549 breast) of 74.2 µM, a TGI (MCF7 breast) of 69.4 µM and a TGI (SNB-19 CNS) greater than 100 µM. The TGI (786-0 renal) was greater than 100 µM, the TGI (SF-268 CNS) was 72.3 µM and the TGI (HOP-62 NSCLC) was greater than 100 µM. It also gave a TGI (SK-MEL-2 melanoma) of 53.9 µM, a TGI (A498 renal) greater than 100 µM and a TGI (T-47D breast) of 75.9 µM. It also gave a TGI (K-562 leukemia) greater than 100 µM, a TGI (HOP-92 NSCLC) of 48.6 µM and a TGI (HL-60(TB) leukemia) greater than 100 µM. It also gave a TGI (ACHN renal) greater than 100 µM, a TGI (LOX IMVI melanoma) of 24.8 µM and a TGI (NCI/ADR-RES ovarian) of 81.3 µM. The TGI (UACC-257 melanoma) was greater than 100 µM, the TGI (NCI-H226 lung) was greater than 100 µM and the TGI (SF-295 CNS) was 67.6 µM. It also gave a TGI (OVCAR-3 ovarian) greater than 100 µM, a TGI (M14 melanoma) of 61.3 µM and a TGI (CCRF-CEM leukemia) greater than 100 µM. It also gave a TGI (UACC-62 melanoma) of 96.1 µM, a TGI (OVCAR-8 ovarian) of 21.9 µM and a TGI (MDA-MB-435) greater than 100 µM. The TGI (EKVX NSCLC) was greater than 100 µM, the TGI (SK-MEL-28 melanoma) was greater than 100 µM and the TGI (NCI-H522 lung) was 45.6 µM. It also gave a TGI (MOLT-4 leukemia) greater than 100 µM, a TGI (OVCAR-4 ovarian) greater than 100 µM and a TGI (SW-620 colon) greater than 100 µM. It also gave a TGI (HS 578T breast) of 63.8 µM, a TGI (TK-10 renal) greater than 100 µM and a TGI (MALME-3M melanoma) of 74.4 µM. For the same compound, the TGI (UO-31 renal) was greater than 100 µM, the TGI (OVCAR-5 ovarian) was greater than 100 µM and the TGI (NCI-H460 lung) was 35.8 µM. The TGI (U251 CNS) was 25.2 µM, the TGI (RXF 393 renal) was 28.3 µM and the TGI (CAKI-1 renal) was greater than 100 µM. It also gave a TGI (SN12C renal) greater than 100 µM, a TGI (PC-3 prostate) of 34.9 µM and a TGI (HCT-116 colon) greater than 100 µM. The TGI (MDA-MB-231 breast) was 44.8 µM, the TGI (KM12 colon) was 97.2 µM and the TGI (IGROV1 ovarian) was 30.8 µM. The TGI (SK-OV-3 ovarian) was greater than 100 µM, the TGI (MDA-N) was greater than 100 µM and the TGI (SK-MEL-5 melanoma) was greater than 100 µM. For the same compound, the TGI (DU-145 prostate) was greater than 100 µM, the TGI (NCI-H23 lung) was 62.5 µM and the TGI (A549 NSCLC) was greater than 100 µM. The TGI (HCT-15 colon) was 43.1 µM, the TGI (HT29 colon) was greater than 100 µM and the TGI (COLO 205 colon) was greater than 100 µM.

Compound CC(C)(CN1CCCCC1)C(/C=C/c1ccc(Cl)c(Cl)c1)=N\NC(=O)N/N=C(/C=C/c1ccc(Cl)c(Cl)c1)C(C)(C)CN1CCCCC1 has a TGI (BT-549 breast) greater than 10 µM, a TGI (MCF7 breast) of 3.09 µM and a TGI (SNB-19 CNS) of 3.22 µM. It also gave a TGI (786-0 renal) of 2.8 µM, a TGI (SF-268 CNS) of 3.15 µM and a TGI (HOP-62 NSCLC) of 3.32 µM. For the same compound, the TGI (SK-MEL-2 melanoma) was greater than 10 µM, the TGI (A498 renal) was 3.11 µM and the TGI (T-47D breast) was 4.1 µM. It also gave a TGI (K-562 leukemia) of 0.876 µM, a TGI (HL-60(TB) leukemia) of 3.25 µM and a TGI (ACHN renal) of 3.37 µM. It also gave a TGI (LOX IMVI melanoma) of 2.5 µM, a TGI (NCI/ADR-RES ovarian) of 3.32 µM and a TGI (UACC-257 melanoma) of 3.08 µM. The TGI (NCI-H226 lung) was 4.1 µM, the TGI (SF-295 CNS) was 3.07 µM and the TGI (OVCAR-3 ovarian) was 2.91 µM. The TGI (M14 melanoma) was 1.32 µM, the TGI (CCRF-CEM leukemia) was 3.45 µM and the TGI (UACC-62 melanoma) was 3.4 µM. The TGI (OVCAR-8 ovarian) was 3.38 µM, the TGI (MDA-MB-435) was 2.57 µM and the TGI (EKVX NSCLC) was 3.06 µM. It also gave a TGI (SK-MEL-28 melanoma) of 3.16 µM, a TGI (NCI-H522 lung) of 3.56 µM and a TGI (RPMI-8226 leukemia) of 9 µM. It also gave a TGI (MOLT-4 leukemia) of 8.74 µM, a TGI (OVCAR-4 ovarian) of 3.19 µM and a TGI (SW-620 colon) of 3.13 µM. It also gave a TGI (HS 578T breast) of 3.39 µM, a TGI (TK-10 renal) of 3.08 µM and a TGI (SNB-75 CNS) of 3.12 µM. It also gave a TGI (MALME-3M melanoma) of 2.95 µM, a TGI (UO-31 renal) of 5.56 µM and a TGI (OVCAR-5 ovarian) of 2.97 µM. For the same compound, the TGI (NCI-H460 lung) was 2.77 µM, the TGI (U251 CNS) was 3.13 µM and the TGI (RXF 393 renal) was 1.99 µM. For the same compound, the TGI (CAKI-1 renal) was 3.16 µM, the TGI (SN12C renal) was 3.24 µM and the TGI (PC-3 prostate) was greater than 10 µM. For the same compound, the TGI (HCT-116 colon) was 2.11 µM, the TGI (MDA-MB-231 breast) was 3.71 µM and the TGI (KM12 colon) was 3.08 µM. It also gave a TGI (SF-539 CNS) of 3.25 µM, a TGI (IGROV1 ovarian) of 3.64 µM and a TGI (SK-OV-3 ovarian) of 3.33 µM. It also gave a TGI (MDA-N) of 2.75 µM, a TGI (SK-MEL-5 melanoma) of 3.5 µM and a TGI (DU-145 prostate) of 3.33 µM. For the same compound, the TGI (NCI-H23 lung) was 3.4 µM, the TGI (A549 NSCLC) was 3.3 µM and the TGI (HCT-15 colon) was 2.56 µM. It also gave a TGI (HCC-2998 colon) of 3.12 µM, a TGI (HT29 colon) of 1.25 µM and a TGI (COLO 205 colon) of 3.19 µM.

C#C[C@]1(O)CC[C@H]2[C@@H]3CCC4=CC(=NCCOC(=O)c5cccc6c(=O)c7ccccc7[nH]c56)CC[C@@H]4[C@H]3CC[C@@]21C showed a TGI (BT-549 breast) greater than 100 µM, a TGI (MCF7 breast) greater than 100 µM and a TGI (SNB-19 CNS) greater than 100 µM. The TGI (786-0 renal) was greater than 100 µM, the TGI (SF-268 CNS) was greater than 100 µM and the TGI (HOP-62 NSCLC) was greater than 100 µM. The TGI (SK-MEL-2 melanoma) was 95.6 µM, the TGI (A498 renal) was greater than 100 µM and the TGI (T-47D breast) was 78.1 µM. It also gave a TGI (K-562 leukemia) greater than 100 µM, a TGI (HOP-92 NSCLC) of 89.6 µM and a TGI (HL-60(TB) leukemia) greater than 100 µM. The TGI (ACHN renal) was greater than 100 µM, the TGI (LOX IMVI melanoma) was 84 µM and the TGI (NCI/ADR-RES ovarian) was greater than 100 µM. It also gave a TGI (UACC-257 melanoma) greater than 100 µM, a TGI (NCI-H226 lung) greater than 100 µM and a TGI (SF-295 CNS) greater than 100 µM. It also gave a TGI (OVCAR-3 ovarian) greater than 100 µM, a TGI (M14 melanoma) greater than 100 µM and a TGI (CCRF-CEM leukemia) greater than 100 µM. For the same compound, the TGI (UACC-62 melanoma) was greater than 100 µM, the TGI (OVCAR-8 ovarian) was 48.9 µM and the TGI (MDA-MB-435) was greater than 100 µM. The TGI (EKVX NSCLC) was greater than 100 µM, the TGI (SK-MEL-28 melanoma) was greater than 100 µM and the TGI (NCI-H522 lung) was greater than 100 µM. For the same compound, the TGI (MOLT-4 leukemia) was greater than 100 µM, the TGI (OVCAR-4 ovarian) was greater than 100 µM and the TGI (SW-620 colon) was greater than 100 µM. The TGI (HS 578T breast) was greater than 100 µM, the TGI (TK-10 renal) was greater than 100 µM and the TGI (MALME-3M melanoma) was 91.1 µM. For the same compound, the TGI (UO-31 renal) was greater than 100 µM, the TGI (OVCAR-5 ovarian) was greater than 100 µM and the TGI (NCI-H460 lung) was greater than 100 µM. The TGI (U251 CNS) was 51.4 µM, the TGI (RXF 393 renal) was 43.2 µM and the TGI (CAKI-1 renal) was greater than 100 µM. The TGI (SN12C renal) was greater than 100 µM, the TGI (PC-3 prostate) was 55 µM and the TGI (HCT-116 colon) was greater than 100 µM. It also gave a TGI (MDA-MB-231 breast) of 72.6 µM, a TGI (KM12 colon) greater than 100 µM and a TGI (IGROV1 ovarian) greater than 100 µM. It also gave a TGI (SK-OV-3 ovarian) greater than 100 µM, a TGI (MDA-N) greater than 100 µM and a TGI (SK-MEL-5 melanoma) greater than 100 µM. For the same compound, the TGI (DU-145 prostate) was greater than 100 µM, the TGI (NCI-H23 lung) was greater than 100 µM and the TGI (A549 NSCLC) was greater than 100 µM. It also gave a TGI (HCT-15 colon) greater than 100 µM, a TGI (HT29 colon) greater than 100 µM and a TGI (COLO 205 colon) greater than 100 µM.
